Experimental data published in ChEMBL document CHEMBL1201862, “PubChem BioAssay data set” (2004).
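Test compounds were applied to cells in 96-well plates for 48 hours at 5 doses. At the GI50, growth is halved.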 Calls of active or inactive are those of the source. No stated cut-off is given here; in the data, active = GI50 up to about 1.1 µM and inactive = higher.

Experiments:
Assay in all cases: NCI tumour cell line growth inhibition, 48 h
UACC-257 = tested on: UACC-257
RXF 393 = tested on: RXF 393
SK-OV-3 = tested on: SK-OV-3
TK-10 = tested on: TK-10
RPMI-8226 = tested on: RPMI-8226
SNB-19 = tested on: SNB-19
HT-29 = tested on: HT-29
CCRF-CEM = tested on: CCRF-CEM
T47D = tested on: T47D
HOP-62 = tested on: HOP-62
MDA-MB-231 = tested on: MDA-MB-231
HCC 2998 = tested on: HCC 2998
MOLT-4 = tested on: MOLT-4
Hs-578T = tested on: Hs-578T
DU-145 = tested on: DU-145
OVCAR-4 = tested on: OVCAR-4
SF-295 = tested on: SF-295
NCI-H460 = tested on: NCI-H460
U-251 = tested on: U-251
UACC-62 = tested on: UACC-62
HOP-92 = tested on: HOP-92
BT-549 = tested on: BT-549
OVCAR-3 = tested on: OVCAR-3
HCT-116 = tested on: HCT-116
A498 = tested on: A498
M14 = tested on: M14
SR = tested on: SR
NCI-H23 = tested on: NCI-H23
SK-MEL-5 = tested on: SK-MEL-5
NCI/ADR-RES = tested on: NCI/ADR-RES
SNB-75 = tested on: SNB-75
SK-MEL-2 = tested on: SK-MEL-2
SK-MEL-28 = tested on: SK-MEL-28
COLO 205 = tested on: COLO 205
UO-31 = tested on: UO-31
K562 = tested on: K562
LOX IMVI = tested on: LOX IMVI
Malme-3M = tested on: Malme-3M
MDA-MB-435 = tested on: MDA-MB-435
IGROV-1 = tested on: IGROV-1
OVCAR-5 = tested on: OVCAR-5
PC-3 = tested on: PC-3
MDA-N = tested on: MDA-N
786-0 = tested on: 786-0
CAKI-1 = tested on: CAKI-1
ACHN = tested on: ACHN
SF-268 = tested on: SF-268
NCI-H226 = tested on: NCI-H226
KM12 = tested on: KM12
SW-620 = tested on: SW-620
OVCAR-8 = tested on: OVCAR-8
HCT-15 = tested on: HCT-15
SN12C = tested on: SN12C
A549 = tested on: A549

Q: How did the GI50 (UACC-257) turn out when `O=C(Cn1c2ccc(Br)cc2c2nc3ccccc3nc21)NCc1ccccc1` was run?
A: The GI50 was > 100 µM (inactive).

Q: And the GI50 (RXF 393)?
A: The GI50 was 12 µM (inactive).

Q: And the GI50 (SK-OV-3)?
A: Its GI50 is 44.3 µM (inactive).

Q: And the GI50 (TK-10)?
A: Its GI50 is 17.7 µM (inactive).

Q: What about the GI50 (RPMI-8226) of the same molecule?
A: The GI50 was > 100 µM (inactive).

Q: And the GI50 (SNB-19)?
A: Its GI50 is 22.3 µM (inactive).

Q: What about the GI50 (HT-29) of the same molecule?
A: The GI50 was > 100 µM (inactive).

Q: And the GI50 (CCRF-CEM)?
A: The GI50 was > 100 µM (inactive).

Q: And the GI50 (T47D)?
A: Its GI50 is 4.1 µM (inactive).

Q: What about the GI50 (HOP-62) of the same molecule?
A: Its GI50 is 23 µM (inactive).

Q: And the GI50 (MDA-MB-231)?
A: Its GI50 is 35.4 µM (inactive).

Q: What about the GI50 (HCC 2998) of the same molecule?
A: Its GI50 is > 100 µM (inactive).

Q: And the GI50 (MOLT-4)?
A: The GI50 was > 100 µM (inactive).

Q: What about the GI50 (Hs-578T) of the same molecule?
A: Its GI50 is 22.1 µM (inactive).

Q: And the GI50 (DU-145)?
A: Its GI50 is > 100 µM (inactive).

Q: And the GI50 (OVCAR-4)?
A: Its GI50 is 53.1 µM (inactive).

Q: What about the GI50 (SF-295) of the same molecule?
A: Its GI50 is 29 µM (inactive).

Q: And the GI50 (NCI-H460)?
A: The GI50 was > 100 µM (inactive).

Q: And the GI50 (U-251)?
A: Its GI50 is 15 µM (inactive).

Q: And the GI50 (UACC-62)?
A: The GI50 was 24.4 µM (inactive).

Q: And the GI50 (HOP-92)?
A: The GI50 was 2.01 µM (inactive).

Q: And the GI50 (BT-549)?
A: Its GI50 is 39.9 µM (inactive).

Q: What about the GI50 (OVCAR-3) of the same molecule?
A: The GI50 was > 100 µM (inactive).

Q: What about the GI50 (HCT-116) of the same molecule?
A: Its GI50 is 94.6 µM (inactive).

Q: And the GI50 (A498)?
A: Its GI50 is 31.2 µM (inactive).

Q: What about the GI50 (M14) of the same molecule?
A: The GI50 was 89.9 µM (inactive).

Q: What about the GI50 (SR) of the same molecule?
A: Its GI50 is 39.4 µM (inactive).

Q: What about the GI50 (NCI-H23) of the same molecule?
A: Its GI50 is 37.7 µM (inactive).

Q: What about the GI50 (SK-MEL-5) of the same molecule?
A: The GI50 was > 100 µM (inactive).

Q: What about the GI50 (NCI/ADR-RES) of the same molecule?
A: Its GI50 is > 100 µM (inactive).

Q: What about the GI50 (SNB-75) of the same molecule?
A: Its GI50 is 4.45 µM (inactive).

Q: What about the GI50 (SK-MEL-2) of the same molecule?
A: Its GI50 is 25.3 µM (inactive).

Q: What about the GI50 (SK-MEL-28) of the same molecule?
A: The GI50 was > 100 µM (inactive).

Q: And the GI50 (COLO 205)?
A: The GI50 was > 100 µM (inactive).

Q: What about the GI50 (UO-31) of the same molecule?
A: The GI50 was > 100 µM (inactive).

Q: What about the GI50 (K562) of the same molecule?
A: Its GI50 is > 100 µM (inactive).

Q: What about the GI50 (LOX IMVI) of the same molecule?
A: Its GI50 is 42.9 µM (inactive).

Q: And the GI50 (Malme-3M)?
A: The GI50 was 41.7 µM (inactive).

Q: And the GI50 (MDA-MB-435)?
A: Its GI50 is > 100 µM (inactive).

Q: And the GI50 (IGROV-1)?
A: Its GI50 is 67 µM (inactive).

Q: And the GI50 (OVCAR-5)?
A: Its GI50 is > 100 µM (inactive).

Q: What about the GI50 (PC-3) of the same molecule?
A: Its GI50 is > 100 µM (inactive).

Q: What about the GI50 (MDA-N) of the same molecule?
A: Its GI50 is > 100 µM (inactive).

Q: And the GI50 (786-0)?
A: Its GI50 is 13 µM (inactive).

Q: What about the GI50 (CAKI-1) of the same molecule?
A: Its GI50 is 26.8 µM (inactive).

Q: What about the GI50 (ACHN) of the same molecule?
A: The GI50 was 13.4 µM (inactive).

Q: What about the GI50 (SF-268) of the same molecule?
A: Its GI50 is 38 µM (inactive).

Q: What about the GI50 (NCI-H226) of the same molecule?
A: Its GI50 is 78.7 µM (inactive).

Q: And the GI50 (KM12)?
A: The GI50 was > 100 µM (inactive).

Q: What about the GI50 (SW-620) of the same molecule?
A: The GI50 was > 100 µM (inactive).

Q: And the GI50 (OVCAR-8)?
A: The GI50 was 23.4 µM (inactive).

Q: What about the GI50 (HCT-15) of the same molecule?
A: The GI50 was > 100 µM.

Q: And the GI50 (SN12C)?
A: Its GI50 is > 100 µM (inactive).

Q: What about the GI50 (A549) of the same molecule?
A: The GI50 was > 100 µM (inactive).
